From PMC7136958, “Targeting the pregnane X receptor using microbial metabolite mimicry” (EMBO Molecular Medicine, 2020)
“And” between values parts separate entries of the source, which are not always exact repeats. Identical values can stand only once. Like-named read-outs stand apart in the source and are kept apart here.

Columns and labels:
RXR = assay: [11,12-3H(N)] 9-cis retinoic acid binding competition assay (RXR ligand binding), rat liver nuclear extracts; conditions: 39.94 nM compound, 0.66 nM radioligand
Method: 8), 50 mM NaCl, 0.1 mM EDTA, 1 mM DTT, 1 mM PMSF, and 1% DMSO. The substrate is 3H-CoA (acetyl coenzyme A) and the incubation time is for 1 h at 30° C. The radioactivity in mixture is detected on washed filter paper using a scintillation counter. The Histone Deacetylase (HDAC) fluorescent activity assay (HDAC1-3) is based on the using 2X purified human enzyme mixed with the reaction buffer (50 mM Tris-HCl pH 8, 137 mM NaCl, 2.7 mM KCl, and 1 mM MgCl2, 1 mg/mL fresh BSA and 1% fresh DMSO) and then compounds (in 100% DMSO) are titrated in using Acoustic Technology.
The 2X HDAC substrate is a fluorogenic acetylated peptide from p53 (residues 379 - 38 2 RHKK(Ac)AMC) which is mixed in with the enzyme-compound complex and incubated for 1-2 h at 30 °C. In the development step, a proprietary developer with trichostatin A (or TMP269) is added to stop the reaction and to generate fluorescent color which is read using an EnVision Multilabel Plate Reader (Perkin Elmer) (Ex 360 nm/ Em 460 nm). For all enzyme activity assays, the percentage of enzyme activity (relative to DMSO controls) and IC50 values were calculated using GraphPad Prism 4 program (sigmoidal dose response equations).
Isolation of cell nuclei. Rat liver nuclear fraction was prepared from rat livers by the procedure established and optimized previously 19. […]

mdr1a = assay: PXR target gene expression in C57BL/6 mice after FKK6 gavage; assay type: in vivo, mouse; conditions: both sexes, C57BL/6J, mouse, 500 μM, 5 doses (60 h), individual mice
Method: (§1) (Scheer et al, 2010) were administered 10% DMSO (n = 3) or FKK6 (n = 3) in 3 or 5 doses, with each dose interval of 12 h. Each gavage dose volume was 100 μl. 2–4 h after the dosing period, mice were sacrificed, and tissues were harvested for further analysis. The mouse studies were performed three independent times over an 18‐month period. All purchased mice were acclimatized in the Einstein vivarium for ~ 2 weeks before experiments started. […]. The room temperature was maintained at 25 ± 2°C with 55 ± 5% humidity. All studies were approved by the Institute of Animal Studies at the Albert Einstein College of Medicine, INC (IACUC # 20160706, 20160701 and preceding protocols), and specific animal protocols were also approved by additional protocols (IACUC# 20170406, 20170504) and Animal Care and Use Review Office (ACURO) of the US Army Medical Research and Materiel Command (PR160167, W81XWH‐17‐1‐0479). […]
(§2) Mouse small, large intestine and liver samples were collected and total RNAs were […]
(§3) isolated. […] Each tissue PCR was […]
(§4) repeated in quadruplicate. The expression was normalized to internal control, GAPDH. ( b,d) The histograms show mean (95 %CI) values, c, mean (SD) and two way ANOVA followed with Tukey's post hoc test. The entire experiment was repeated n = 3 for reproducibility. The data shown is one representative experiment .

Cyp3a11 = assay: as above; assay type: in vivo, mouse; conditions: both sexes, C57BL/6J, mouse, 500 μM, 5 doses (60 h), individual mice
Method: as §1, §2, §3, §4

C57BL/6 mice = assay: as above; assay type: in vivo, mouse; conditions: for Cyp3a11 fold expression / mdr1 fold expression: Fig 4d
Method: as §1, §2, §3, §4

[1] = 500 μM, 5 doses (60 h), individual mice

**Q.** With `O=S(=O)(c1ccccc1)n1c(C(O)c2ccncc2)cc2ccccc21` (racemic) [FKK1] as the compound, how does the “displacement of [3H]-9-cis-retinoic acid” value (RXR) read?
**A.** The value was “significant displacement”.

**Q.** What does the source list for `C#CCC(O)(c1ccncc1)c1cc2ccccc2n1S(=O)(=O)c1ccccc1` (stereo not shown) [FKK6]?
**A.** fold induction at 60 h, 500 µM (mdr1a; in vivo, read-out: mdr1a fold induction, Liver): 1.81; fold induction at 60 h, 500 µM (mdr1a; large intestine, oral, read-out: mdr1a fold induction, Large Intestine): 1.27; fold induction at 60 h, 500 µM (mdr1a; liver, oral, read-out: mdr1a fold induction, Liver): 3.05; fold induction at 60 h, 500 µM (Cyp3a11; in vivo, read-out: Cyp3a11 fold induction, Large Intestine): 2.55; fold induction at 60 h (Cyp3a11; liver, oral, 500 μM FKK6 gavage every 12 h): 1.72; Cyp3a11 fold induction, Liver (C57BL/6 mice; 500 μM FKK6 gavage every 12 h, 5 doses (60 h), individual mice): 1.38 fold and 0.89 fold; Cyp3a11 fold induction, Large Intestine (C57BL/6 mice; [1]): 2.23 fold and 0.59 fold; Cyp3a11 fold induction, Small Intestine (C57BL/6 mice; [1]): 1.06 fold and 0.22 fold and 0.76 fold; mdr1a fold induction, Large Intestine (C57BL/6 mice; [1]): 1.77 fold and 1.33 fold; mdr1a fold induction, Liver (C57BL/6 mice; [1]): 1.83 fold; mdr1a fold induction, Small Intestine (C57BL/6 mice; [1]): 2.65 fold and 1.8 fold and 0.95 fold; mdr1b fold induction, Large Intestine (C57BL/6 mice; [1]): 0.89 fold and 0.42 fold and 0.77 fold; mdr1b fold induction, Liver (C57BL/6 mice; [1]): 1.65 fold and 1.12 fold and 0.6 fold; mdr1b fold induction, Small Intestine (C57BL/6 mice; [1]): 2.4 fold and 1.54 fold and 0.43 fold; Cyp3a11 fold expression (C57BL/6 mice; Large Intestine): 1.73 fold and 2.49 fold and 1.98 fold; mdr1 fold expression (C57BL/6 mice; Large Intestine): 1.58 fold and 1.34 fold and 1.57 fold; Cyp3a11 fold expression (C57BL/6 mice; Liver): 1.21 fold and 1.31 fold and 1.6 fold; mdr1 fold expression (C57BL/6 mice; Liver): 0.95 fold and 0.87 fold and 0.81 fold; Cyp3a11 fold expression (C57BL/6 mice; Small Intestine): 1.28 fold and 1.07 fold and 0.75 fold; mdr1 fold expression (C57BL/6 mice; Small Intestine): 1.46 fold and 2.26 fold and 1.43 fold; PXR target gene (cyp3a11, mdr1a, mdr1b, mdr1) expression across organs (C57BL/6 mice; ~500 μM, 36 or 60 h): No significant effect
